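Five compound concentrations were applied to cells in 96-well plates for 48 hours; endpoints were derived by simple linear interpolation of the resulting dose-response curve. At the TGI there is no net growth.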
Tests used:
Experiment in all cases: NCI anticancer screen, dose series, 48 h
SNB-19 CNS = tested on: SNB-19 CNS
IGROV1 ovarian = tested on: IGROV1 ovarian
HL-60(TB) leukemia = tested on: HL-60(TB) leukemia
NCI-H460 lung = tested on: NCI-H460 lung
MDA-N = tested on: MDA-N
NCI-H23 lung = tested on: NCI-H23 lung
SF-539 CNS = tested on: SF-539 CNS
A549 NSCLC = tested on: A549 NSCLC
HT29 colon = tested on: HT29 colon
TK-10 renal = tested on: TK-10 renal
SF-295 CNS = tested on: SF-295 CNS
OVCAR-3 ovarian = tested on: OVCAR-3 ovarian
MDA-MB-231 breast = tested on: MDA-MB-231 breast
MCF7 breast = tested on: MCF7 breast

Row | Compound | TGI (SNB-19 CNS) [µM] | TGI (IGROV1 ovarian) [µM] | TGI (HL-60(TB) leukemia) [µM] | TGI (NCI-H460 lung) [µM] | TGI (MDA-N) [µM] | TGI (NCI-H23 lung) [µM] | TGI (SF-539 CNS) [µM] | TGI (A549 NSCLC) [µM] | TGI (HT29 colon) [µM] | TGI (TK-10 renal) [µM] | TGI (SF-295 CNS) [µM] | TGI (OVCAR-3 ovarian) [µM] | TGI (MDA-MB-231 breast) [µM] | TGI (MCF7 breast) [µM]
1 | c1ccc(CNCCCNCCCCNCCCNCc2ccccc2)cc1 | 27.4 | 5.58 | 4 | 19.1 | 4.13 | 12.3 | 3.72 | 45.5 | 5.86 | 18 | 35.2 | 28.3 | 22.1 | 14.4
2 | O=C1NC(=O)/C(=C/c2ccc(S(=O)(=O)N/N=C/c3ccccc3)cc2)N1 | > 100 | > 100 | > 100 |  | > 100 | > 100 |  | > 100 | > 100 | > 100 | > 100 | > 100 | > 100 | > 100
3 | COC(=N)c1ncn(Cc2ccccc2)c1N | > 100 | > 100 |  | > 100 | > 100 | > 100 | > 100 | > 100 | > 100 | > 100 | > 100 | > 100 | > 100 | > 100
4 | CCn1c(SCC(=O)NNC(=S)Nc2ccc(Cl)cc2)nc2ccccc2c1=O | > 100 | > 100 | 84.9 | > 100 | > 100 | > 100 | > 100 | > 100 |  | > 100 | > 100 | > 100 | > 100 | > 100
5 | N=c1oc2ccc([N+](=O)[O-])cc2cc1C(=O)Nc1ccccn1 | > 100 | > 100 | > 100 | > 100 | > 100 | > 100 | > 100 | > 100 | > 100 |  |  | 65.8 | 59.9 | > 100
6 | CSC1=N/C(=C\c2ccccc2)C(=O)N1CN1CCOCC1 | > 100 | > 100 | > 100 |  | > 100 | > 100 |  | > 100 | 78.5 | > 100 | > 100 | > 100 | > 100 | > 100
7 | C[As](C)SCC(NC(=O)CCC(N)C(=O)O)C(=O)NCC(=O)O.Cl.c1ccncc1 (centres undefined) | 25.5 | 6.18 | 0.878 | 8.9 | 1.51 | 2.7 | 2.09 | 5.64 |  | 0.595 | 12.7 | 0.412 | 0.912 | 1.14
8 | Cc1ccc(O)c(-c2cc(-c3ccccc3)nc(/N=C\c3ccccc3)n2)c1 | > 100 | 44 | > 100 | > 100 | > 100 | 81.5 | > 100 | > 100 | > 100 | > 100 | > 100 | > 100 | > 100 | > 100
9 | c1csc(-c2ccc(-c3ccsc3)s2)c1 | > 100 | > 100 | > 100 | > 100 | > 100 | > 100 | > 100 | > 100 | > 100 | > 100 | > 100 |  | > 100 | > 100
10 | O=[N+]([O-])c1ccc(/C=N/n2c(CCc3n[nH]c(=S)n3/N=C/c3ccc([N+](=O)[O-])o3)n[nH]c2=S)o1 |  | > 100 | 97.7 | > 100 | 26.7 | 34.7 | > 100 |  | 86.4 | > 100 | > 100 | 54.2 | 52.4 | 39.7
11 | CN(C)C=NCc1ccc2c(c1)OCO2 | > 100 | > 100 |  | > 100 | > 100 | > 100 | > 100 | > 100 | > 100 | > 100 | > 100 | > 100 | > 100 | > 100
12 | CCSC1=C(C#N)C2(CCCCC2)C2=C(CC(C)(C)CC2=O)N1 | 76.2 | > 100 | > 100 | 21.2 | > 100 | > 100 | > 100 | > 100 | > 100 | > 100 |  |  | > 100 | > 100
13 | Cc1ccc(N(C)S(=O)(=O)c2ccccc2)cc1 | > 100 | > 100 |  | > 100 | > 100 | > 100 | > 100 | > 100 | > 100 | > 100 | > 100 | > 100 | > 100 | > 100
14 | COc1ccc(/C=N/NS(=O)(=O)c2ccc(/C=C3\NC(=O)N(C)C3=O)cc2)cc1 | > 100 | > 100 | > 100 | > 100 | > 100 | > 100 |  | > 100 | > 100 | > 100 | > 100 | > 100 | > 100 | > 100
15 | N#Cc1nc(-c2ccccc2O)oc1N | > 100 | > 100 | > 100 |  | > 100 |  |  | > 100 | > 100 | > 100 |  |  | > 100 | > 100
16 | c1csc(-c2sc(-c3ccsc3)cc2Cc2ccsc2)c1 |  | > 10 | > 10 |  | > 10 | > 10 |  | > 10 | > 10 | > 10 | > 10 |  | > 10 | > 10
17 | CC12OC3(C(O)C1O)C(C(=O)O[C@H]3CO[Si](C)(C)C(C)(C)C)C2S(=O)(=O)c1ccccc1 (some centres undefined) | > 100 | 97.4 | 67.9 | > 100 | > 100 |  | > 100 | > 100 | > 100 | > 100 | > 100 | > 100 | > 100 | > 100
18 | Clc1cc2nnn(C3CCCCO3)c2cc1Cl (centres undefined) | > 100 | > 100 |  | > 100 | > 100 | > 100 | > 100 | > 100 | > 100 | > 100 | > 100 | > 100 | > 100 | > 100
